# Data: patent publication US20240024279A1, “METHODS FOR REDUCING THE WEIGHT LOSS OR INCREASING THE WEIGHT OF A FELINE IN NEED THEREOF” (INCREVET, INC., priority 2019, published 2024)
# Entries after “also recorded” stand apart in the source; their conditions may differ.
# Assays:
# [1] = tested on: client-owned cats diagnosed with diabetes mellitus; assay: Field effectiveness study in client-owned cats with diabetes mellitus; assay type: in vivo, cat; conditions: diabetic cats, oral once daily, day 0 to day 56, low-carbohydrate diet
# Procedure: In a field effectiveness study, client-owned cats diagnosed with diabetes mellitus based on: i) two separate fasting (>6 h) blood glucose measurements >250 mg dL^−1; ii) glucosuria; iii) fructosamine >25% above the upper limit of normal for the testing laboratory, and iv) one or more of the following: polyuria/polydipsia, polyphagia and/or weight loss (documented in the cat's medical records) can be enrolled. Cats with suspected diabetes mellitus can be evaluated during visit 1 (within 7 days prior to day 0). Eligible cats can be enrolled during visit 2 (day 0) and management can be initiated using velagliflozin administered orally once daily. Cats can be prescribed a low-carbohydrate diet. Cats would return to the clinic for evaluation of glycemic control during visits 3 (day 14±3), 4 (day 28±3), and 5 (day 56±3). […] A cat can be brought back to the clinic at any time for unscheduled visits if such visits are determined to be necessary by the owner or investigator. Eight-hour blood glucose curves (blood samples collected every 2 h±15 min for 8 h) can be conducted at every visit starting with visit 2 (day 0) and blood glucose can be measured using an AlphaTRAK 2 glucometer (Abbott Laboratories). […] A central laboratory would be used to evaluate all clinical pathology samples (blood, serum, and urine) that are not analyzed in the clinic for blood glucose curves. […]
# [2] = tested on: healthy purpose-bred cats; assay: Urinary glucose excretion in healthy purpose-bred cats after once-daily oral velagliflozin capsules for three days; assay type: in vivo, cat; conditions: gelatin capsules once a day for three days, urine
# Procedure: Velagliflozin (2-(4-cyclopropylbenzyl)-4-((2S,3R,4R,5S,6R)-3,4,5-trihydroxy-6-(hydroxymethyl)tetrahydro-2H-pyran-2-yl)benzonitrile, CAS number 946525-65-1; Compound 1) can be prepared by a variety of means, including as described in US2015/0164856A1 and is commercially available, for example as catalog number HY-109018 from MedChemExpress. Velagliflozin formulated in gelatin capsules was administered to healthy purpose-bred cats once a day for three days and the urinary glucose excretion recorded over the three consecutive 24-hour periods following dosing. Velagliflozin was administered at three dose levels: 1 mg, 3 mg and 10 mg per cat per day. The mean daily glucose excretion over three days was 2527 mg, 3601 mg and 5256 mg for mean dosages of 0.318 mg/kg, 0.953 mg/kg and 3.071 mg/kg, respectively.
# obese cats = conditions: velagliflozin group, 1 mg/kg in gelatin capsules, cited from earlier work
# [3] = tested on: experimental diabetes in dogs; conditions: pancreatectomized animals in full glycosuria; cited from earlier work
# [4] = most species; cited from earlier work
# [5] = tested on: experimental diabetes in cats; conditions: cats with experimental diabetes, subcutaneous injection of a suspension in olive oil; cited from earlier work
Compound,body weight change [1],"owner-evaluated clinical signs (polydipsia, polyphagia, polyuria) [1]","mean daily glucose excretion over three days ([2]; 1 mg per cat per day, mean dosage 0.318 mg/kg) [mg]","mean daily glucose excretion over three days ([2]; 3 mg per cat per day, mean dosage 0.953 mg/kg) [mg]","mean daily glucose excretion over three days ([2]; 10 mg per cat per day, mean dosage 3.071 mg/kg) [mg]",body weight at end of treatment (obese cats; after the course of treatment) [kg],food intake at end of treatment (obese cats; after the course of treatment) [g],body weight at start of treatment (obese cats; before treatment) [kg],food intake at start of treatment (obese cats; before treatment) [g],effect on hyperglycemia [3],half-life [4],effect on hyperglycemia [5]
"N#Cc1ccc([C@@H]2O[C@H](CO)[C@@H](O)[C@H](O)[C@H]2O)cc1Cc1ccc(C2CC2)cc1 [Velagliflozin, 2-(4-cyclopropylbenzyl)-4-((2S,3R,4R,5S,6R)-3,4,5-trihydroxy-6-(hydroxymethyl)tetrahydro-2H-pyran-2-yl)benzonitrile]",Weight gain and reduction in weight loss; also recorded: increase the average weight of a cat or reduce the weight loss of a cat,"improvement in polydipsia, polyphagia and polyuria",2527,3601,5256,7.0 ± 1.4,58 ± 11,7.2 ± 1.5,57 ± 8,–,–,–
O=C(CCc1ccc(O)cc1)c1c(O)cc(O)cc1O[C@@H]1O[C@H](CO)[C@@H](O)[C@H](O)[C@H]1O [phlorizin],–,–,–,–,–,–,–,–,–,the hyperglycemia disappears,short half-life,dramatic reduction of hyperglycemia
